The conditions of series [1]: 303.15 K; 101 kPa; Liquid.
The nature of series [2]: xn = mol fraction of the nth substance listed. As to conditions: 303.15 K, 101 kPa, Liquid.

± gives the expanded uncertainty stated by the source.

What is called mass density is the mass of a sample divided by its volume. As to `CC(C)CC(C)(C)C` [2,2,4-trimethylpentane], in series [1], the mass density was 683.74 ± 0.43 kg/m3.
For the compound `CC(C)CC(C)(C)C` [2,2,4-trimethylpentane] + CC(C)OC(C)C, the mass density in series [2] (x2 = 0) is listed as 683.74 ± 0.43 kg/m3.
In the case of `CC(C)CC(C)(C)C` [2,2,4-trimethylpentane] + CCCO, the mass density in series [2] (x2 = 0) turned out to be 683.74 ± 0.43 kg/m3; in series [2] (x2 = 0.0484) it was 685.75 ± 0.43 kg/m3; in series [2] (x2 = 0.0993) it was 688.26 ± 0.43 kg/m3; in series [2] (x2 = 0.2038) it was 694.24 ± 0.42 kg/m3; in series [2] (x2 = 0.2983), 700.64 ± 0.42 kg/m3; in series [2] (x2 = 0.4) it was 708.63 ± 0.41 kg/m3. For the same compound, the mass density in series [2] (x2 = 0.5007) stood at 717.82 ± 0.41 kg/m3; in series [2] (x2 = 0.5989) it was 728.33 ± 0.4 kg/m3; in series [2] (x2 = 0.6995), 741.12 ± 0.39 kg/m3; in series [2] (x2 = 0.7998) it was 756.21 ± 0.38 kg/m3; in series [2] (x2 = 0.8984) it was 774.29 ± 0.36 kg/m3; in series [2] (x2 = 0.9502), 785.01 ± 0.35 kg/m3.
On to `CC(C)OC(C)C` [diisopropyl ether], for which the mass density in series [1] stood at 713.51 ± 0.76 kg/m3.
Consider `CC(C)OC(C)C` [diisopropyl ether] + CC(C)CC(C)(C)C, for which the mass density in series [2] (x1 = 0.0504) is 684.87 ± 0.43 kg/m3; in series [2] (x1 = 0.102) it was 686.03 ± 0.43 kg/m3; in series [2] (x1 = 0.1985) it was 688.29 ± 0.43 kg/m3; in series [2] (x1 = 0.301) it was 690.84 ± 0.43 kg/m3; in series [2] (x1 = 0.3996), 693.42 ± 0.43 kg/m3; in series [2] (x1 = 0.5002), 696.27 ± 0.42 kg/m3. Also, the mass density was 699.34 ± 0.42 kg/m3 in series [2] (x1 = 0.6002); 702.6 ± 0.42 kg/m3 in series [2] (x1 = 0.7009); 705.55 ± 0.41 kg/m3 in series [2] (x1 = 0.7849); 709.78 ± 0.41 kg/m3 in series [2] (x1 = 0.9013); 711.68 ± 0.41 kg/m3 in series [2] (x1 = 0.9512); 713.51 ± 0.41 kg/m3 in series [2] (x1 = 1).
For the compound `CC(C)OC(C)C` [diisopropyl ether] + CCCO, the mass density was determined as 790.59 ± 0.61 kg/m3 in series [2] (x1 = 0.0504); 785.96 ± 0.62 kg/m3 in series [2] (x1 = 0.0991); 775.66 ± 0.64 kg/m3 in series [2] (x1 = 0.2001); 766.52 ± 0.66 kg/m3 in series [2] (x1 = 0.2994); 757.67 ± 0.68 kg/m3 in series [2] (x1 = 0.4); 749.3 ± 0.69 kg/m3 in series [2] (x1 = 0.5018). Further, the mass density is reported as 741.73 ± 0.71 kg/m3 in series [2] (x1 = 0.6006); 734.54 ± 0.72 kg/m3 in series [2] (x1 = 0.6995); 727.46 ± 0.73 kg/m3 in series [2] (x1 = 0.7994); 720.72 ± 0.75 kg/m3 in series [2] (x1 = 0.8981); 717.2 ± 0.75 kg/m3 in series [2] (x1 = 0.9498); 713.51 ± 0.76 kg/m3 in series [2] (x1 = 1).
For `CCCO` [propan-1-ol], the mass density in series [1] was 796.55 ± 0.6 kg/m3.
`CCCO` [propan-1-ol] + CC(C)CC(C)(C)C: the mass density in series [2] (x1 = 1) is 796.55 ± 0.34 kg/m3.
For `CCCO` [propan-1-ol] + CC(C)OC(C)C, the mass density in series [2] (x2 = 0) is listed as 796.55 ± 0.6 kg/m3.
